The values below come from patent publication US12612409B2, “Pyrrolopyrimidines as CFTR potentiators” (Cystic Fibrosis Foundation, priority 2016, dated 2026).

Each structure is given as a SMILES string.

The target in test [1] is T1, recombinant F508del V470 CFTR in Fischer rat thyroid (FRT) cells (Homo sapiens, UniProt P13569, DEL508-508).
T1 construct: expressed in transfected cells
Kind of test: FRT ion flux assay of F508del CFTR potentiation. The test is classed as cell-based. Conditions: FRT cells expressing F508del V470 CFTR, forskolin 20 uM, 27° C. pre-incubation. An outline of the steps: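 Potentiation read as YFP quench ~21 s after iodide buffer addition, as second/initial fluorescence ratio normalised between DMSO (0%) and reference potentiator (100%).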

Test [2] deals with T2, CFTR in G551D/F508del primary CF hBE cells (Homo sapiens, UniProt P13569, G551D).
T2 construct: Primary cystic fibrosis human bronchial epithelial (CF hBE) cells were expanded and cultured; endogenous in cells; host or cells: primary CF human bronchial epithelial cells, genotype G551D/F508del
T2 sequence (P13569 whole entry F508del/G551D): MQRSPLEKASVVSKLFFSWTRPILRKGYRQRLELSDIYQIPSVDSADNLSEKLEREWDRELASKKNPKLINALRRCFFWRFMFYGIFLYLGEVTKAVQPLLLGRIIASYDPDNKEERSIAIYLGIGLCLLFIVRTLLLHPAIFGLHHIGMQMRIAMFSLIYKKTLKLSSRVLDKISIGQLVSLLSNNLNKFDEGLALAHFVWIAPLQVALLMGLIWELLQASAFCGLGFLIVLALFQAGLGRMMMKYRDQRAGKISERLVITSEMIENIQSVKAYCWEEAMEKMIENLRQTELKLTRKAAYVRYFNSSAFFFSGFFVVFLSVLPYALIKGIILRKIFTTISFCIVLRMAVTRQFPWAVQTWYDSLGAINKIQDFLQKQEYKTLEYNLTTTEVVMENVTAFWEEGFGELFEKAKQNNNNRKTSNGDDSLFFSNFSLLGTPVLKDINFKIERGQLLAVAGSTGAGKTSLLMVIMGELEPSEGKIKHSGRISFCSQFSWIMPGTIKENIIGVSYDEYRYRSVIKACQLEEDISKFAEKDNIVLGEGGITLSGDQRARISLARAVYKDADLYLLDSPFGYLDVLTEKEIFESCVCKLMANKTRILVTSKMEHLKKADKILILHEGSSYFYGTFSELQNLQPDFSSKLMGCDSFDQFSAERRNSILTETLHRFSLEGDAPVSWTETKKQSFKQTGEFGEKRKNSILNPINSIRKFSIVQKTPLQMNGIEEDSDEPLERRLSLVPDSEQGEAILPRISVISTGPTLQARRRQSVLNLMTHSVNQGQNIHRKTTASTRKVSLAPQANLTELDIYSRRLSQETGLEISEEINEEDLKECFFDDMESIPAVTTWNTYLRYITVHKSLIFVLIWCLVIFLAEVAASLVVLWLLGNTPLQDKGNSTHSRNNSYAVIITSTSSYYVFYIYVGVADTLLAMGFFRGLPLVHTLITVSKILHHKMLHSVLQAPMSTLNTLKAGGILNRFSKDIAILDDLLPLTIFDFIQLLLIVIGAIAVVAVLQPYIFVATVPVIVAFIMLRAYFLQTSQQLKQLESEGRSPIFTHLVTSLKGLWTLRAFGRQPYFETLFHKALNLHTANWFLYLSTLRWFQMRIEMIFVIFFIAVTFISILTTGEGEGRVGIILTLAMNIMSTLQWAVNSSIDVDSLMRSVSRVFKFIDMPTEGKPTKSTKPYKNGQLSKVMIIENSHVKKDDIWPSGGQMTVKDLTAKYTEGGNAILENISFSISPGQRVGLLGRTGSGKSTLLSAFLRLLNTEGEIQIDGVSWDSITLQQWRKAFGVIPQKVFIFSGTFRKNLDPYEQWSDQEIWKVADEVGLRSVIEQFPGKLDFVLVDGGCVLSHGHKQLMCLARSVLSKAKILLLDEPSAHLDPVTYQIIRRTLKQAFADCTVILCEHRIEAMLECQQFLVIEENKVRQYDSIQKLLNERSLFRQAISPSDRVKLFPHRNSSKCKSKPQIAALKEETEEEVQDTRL
In words: Ussing chamber electrophysiology assay of CFTR potentiation in G551D/F508del CF bronchial epithelial cells (35° C.). The class given is cell-based. Conditions: G551 D/F508del Ussing chamber assay at 35 degrees Celsius. From the text:
• SHELXTL, Version 5.1, Bruker AXS, 1997. • PLATON, A. L. Spek, J. Appl. Cryst. 2003, 36, 7-13. • MERCURY, C. F. Macrae, P. R. Edington, P. McCabe, E. Pidcock, G. P. Shields, R. Taylor, M. Towler and J. van de Streek, J. Appl. Cryst. 39, 453-457, 2006. • OLEX2, Dolomanov, O. V.; Bourhis, L. J.; Gildea, R. J.; Howard, J. A. K.; Puschmann, H., (2009). J. Appl. Cryst., 42, 339-341. • R. W. W. Hooft et al. J. Appl. Cryst. (2008). 41. 96-103. • H. D. Flack, Acta Cryst. 1983, A39, 867-881. Using Chamber Electrophysiology Assay of CFTR Potentiation in CF Bronchial Epithelial Cells
Primary cystic fibrosis human bronchial epithelial (CF hBE) cells were expanded and cultured according to published methods (Neuberger et al., Ch. 4 of Cystic Fibrosis, Methods in Molecular Biology vol. 741, pp. 39-54 (2011)). Well-differentiated cells (>30 days at air/liquid interface) on Snapwell filters (Corning Costar, cat. no. 3801) were mounted in Ussing chambers (Physiologic Instruments, Inc., San Diego, CA). […] HEPES buffered physiological saline (composition (in mM): 137 NaCl, 4 KCl, 1 MgCl2, 1.8 CaCl2), 10 HEPES Na) was used in both apical and basolateral chambers. Chambers were bubbled with air to promote mixing and the voltage was clamped to zero. Amiloride (30 uM), forskolin (10 uM), test compound (4 increasing concentrations), and CFTRinh-172 (20 uM) were added sequentially with 20-25 minutes between additions. Short-circuit currents were acquired and analyzed using LabScribe2. Test compound responses were scaled relative to responses for DMSO (0%) and the maximal response of a positive control potentiator (100%).

For test [3], the target named is T3, CFTR in F508del/F508del primary CF hBE cells (Homo sapiens, UniProt P13569, DEL508-508).
T3 construct: Primary cystic fibrosis human bronchial epithelial (CF hBE) cells were expanded and cultured; endogenous in cells; host or cells: primary CF human bronchial epithelial cells, genotype F508del/F508del
T3 sequence (P13569 with tags, fused parts or gaps DEL508-508): as the sequence (P13569 whole entry F508del/G551D) above, with D550G counted along it
Kind of test: Ussing chamber electrophysiology assay of CFTR potentiation in F508del/F508del CF bronchial epithelial cells (27° C.). The class given is cell-based. An outline of the steps: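 Short-circuit current was recorded under zero-voltage clamp across primary CF bronchial epithelia cultured >30 days at air/liquid interface, bathed apically and basolaterally in HEPES-buffered saline. Sequential additions: amiloride (30 uM), forskolin (10 uM), compound at 4 increasing levels, CFTRinh-172 (20 uM). Responses normalised between DMSO (0%) and maximal positive-control potentiator (100%).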

Test [4] relates to F508del homozygote patients. Conditions: cited from earlier work.
The test system of a further test is G551 D patients. Conditions: cited from earlier work.

T1 sequence (P13569 with tags, fused parts or gaps DEL508-508): as the sequence (P13569 whole entry F508del/G551D) above, with D550G counted along it

`CC[C@@H](c1cn(-c2ccc(F)cc2F)nn1)n1cc(-c2cnc(C(F)(F)F)nc2)c2c(N)ncnc21` (single isomer, unassigned) [Example 161]: the results for the EC50 in test [1], in test [2] and in test [3] were 0.0086 µM, 0.303 µM and 0.0109 µM, respectively.

With `CC[C@H](c1cn(-c2ccc(F)cc2F)nn1)n1cc(-c2cnc(C(F)(F)F)nc2)c2c(N)ncnc21` (single isomer, unassigned) [Example 162], the EC50 in test [1] is 0.363 µM; in test [2] it was 8.45 µM; in test [3], 0.339 µM.

For `CCC(c1cn(-c2ccccc2F)nn1)n1cc(-c2cncnc2OC)c2c(N)ncnc21` (single isomer, unassigned; enantiomer 2) [Example 134, (+) 7-{1-[1-(2-Fluorophenyl)-1H-1,2,3-triazol-4-yl]propyl}-5-(4-methoxypyrimidin-5-yl)-7H-pyrrolo[2,3-d]pyrimidin-4-amine, enantiomer 2], the EC50 came out at 0.0134 µM in test [1], 0.826 µM in test [2] and 0.0289 µM in test [3].

In the case of `COCC(c1cn(-c2ccccc2F)nn1)n1cc(-c2cccnc2OC)c2c(N)ncnc21` (stereo not drawn) [Example 314, 7-{1-[1-(2-Fluorophenyl)-1H-1,2,3-triazol-4-yl]-2-methoxyethyl}-5-(2-methoxypyridin-3-yl)-7H-pyrrolo[2,3-d]pyrimidin-4-amine], the EC50 was 0.23 µM in test [1] and 0.358 µM in test [3].

`COc1ncncc1-c1cn(C(c2cn(-c3ccccc3F)nn2)C2COC2)c2ncnc(N)c12` (stereo not drawn) [Example 315, 7-{[1-(2-Fluorophenyl)-1H-1,2,3-triazol-4-yl](oxetan-3-yl)methyl}-5-(4-methoxypyrimidin-5-yl)-7H-pyrrolo[2,3-d]pyrimidin-4-amine]: the values for the 50% effective concentration (EC50) in test [1] and in test [3] were 0.933 µM and 2.93 µM, respectively.

For `Nc1ncnc2c1c(C1CC1)cn2Cc1cnn(-c2ccccc2F)c1` [Example 317, 5-Cyclopropyl-7-{[1-(2-fluorophenyl)-1H-pyrazol-4-yl]methyl}-7H-pyrrolo[2,3-d]pyrimidin-4-amine], the EC50 in test [1] is 0.129 µM; in test [3], 0.087 µM.

For `CNc1ncnc2c1c(-c1ccc(Cl)cc1)cn2C(C)c1cn(-c2ccccc2F)nn1` (stereo not drawn) [Example 318, 5-(4-Chlorophenyl)-7-{1-[1-(2-fluorophenyl)-1H-1,2,3-triazol-4-yl]ethyl}-N-methyl-7H-pyrrolo[2,3-d]pyrimidin-4-amine], the EC50 in test [1] is 2.99 µM; in test [3] it was 0.397 µM.

`CC(C)(C)c1cc(C(C)(C)C)c(NC(=O)c2c[nH]c3ccccc3c2=O)cc1O` [Kalydeco, ivacaftor]: the improvement on monotherapy entry in test [4] is reported as “did not lead to any appreciable improvement”. Also, in the test with G551 D patients, the “frequency of pulmonary exacerbations” value is “reduced the frequency of pulmonary exacerbations”; the “lung function, percent predicted FEV1 increased” value was 10-13%; the weight entry is reported as “allowed weight gain”.
